Twelve molecules from patent US20090234019A1, “T Type Calcium Channel Inhibitors” (priority 2004, published 2009) can be followed below.

Molecules are shown by their SMILES. pIC50: −log10 of the molar value.

Test [1] has as its system MDA-231 cells. As to the kind of experiment: Inhibition of calcium entry into MDA-231 cells. In kind it is cell-based. Conditions: Homo sapiens, MDA-MB-231, NE = no effect at highest concentration of drug tested, read-out: Ca2+: IC50 for inhibition of calcium entry, MDA-231. The method, then:
(§1) Cells were incubated in growth media containing 1 uM of the acetoxy-methyl ester of the Ca2+-sensitive fluorescent dye indo-1 (indo-1/AM; Molecular Probes, Eugene, Oreg.) for 1 h at 37° C. Cells were washed three times in buffer A [10 mM HEPES (pH 7.4), 1 mM MgCl2, 3 mM KCl, 1 mM CaCl2, 140 mM NaCl, 0.1% glucose, and 1% fetal bovine serum] and suspended to a final concentration of 10^6 cells/ml. Before stimulation, cells were warmed to 37° C. Changes in [Ca2+]i were monitored in an SLM 8100C spectrofluorimeter (SLM/Aminco; Urbana, Ill.) using previously published methods (Densmore, J. J., Haverstick, D. M., Szabo, G., and Gray, L. S. 1996. A voltage operable current is involved in activation-induced Ca^2+ entry in human lymphocytes whereas ICRAC has no apparent role. Am. J. Physiol. 271:C1494-C1503; Haverstick, D. M., Densmore, J. J., and Gray, L. S. 1998. Calmodulin regulation of Ca^2+ entry in Jurkat T cells. Cell Calcium 23:361-368).

For test [2], the system named is PC3 cells. As to the kind of experiment: Inhibition of proliferation of PC3 cells. The test is classed as cell-based, human. Conditions: Homo sapiens, PC-3; PC3; NE = no effect at highest concentration of drug tested; read-out: prolif: IC50 for inhibition of proliferation, PC3. The method, then:
(§2) Cancer cell lines were obtained from the American Type Culture Collection (Manassas, Va.). Cell lines were maintained in RPMI1640 supplemented with glutamine and 5% fetal bovine serum containing SerXtend (Irvine Scientific) when appropriate insulin, as directed by the ATCC. The fetal bovine serum used for culture was heat-inactivated by maintaining the serum at 56° C. for 1 h. Cell lines used were a T celleukemia (Jurkat), prostate cancer (PC3, DU145, LNCAP), breast cancer (MDA468, MDA361, MCF7), pancreatic cancer (MIA PaCa2), liver cancer (Hep G2), lung cancer (A549, NCl H460), colon cancer (HT29, HCT 116), and ovarian cancer (SK-OV-3).
(§3) LNCaP cells at 2.5×10^4 cells/well or PC-3 cells at 5×10^4 cells/well, both in a final volume of […], were plated in triplicate in standard flat-bottomed 96-well tissue culture plates in the presence of drug or vehicle (DMSO). Unless otherwise indicated, cells were grown for 48 h at 37° C. in a CO2 incubator. Relative cell growth was determined with the CellTiter 96 aqueous cell proliferation assay (Promega, Madison, Wis.) as described by the manufacturer using an automated plate reader. Results were calculated in a blinded fashion and are the means of triplicate determinations.

Test [3] concerns Jurkat cells. As to the kind of experiment: Inhibition of proliferation of Jurkat cells. Conditions: Homo sapiens; Jurkat; NE = no effect at highest concentration of drug tested; read-out: prolif: IC50 for inhibition of proliferation, Jurkat. The test is classed as cell-based, human. The method, then:
as §2, §3

In test [4] the test system is MDA-361 cells. Briefly: Inhibition of calcium entry into MDA-361 cells. The test is classed as cell-based. The note with it: MDA361, NE = no effect at highest concentration of drug tested, read-out: Ca2+: IC50 for inhibition of calcium entry, MDA-361. The method, then: as §1
Test [5] has as its system MDA-231 cells. Briefly: Inhibition of proliferation of MDA-231 cells. Conditions: Homo sapiens, MDA-MB-231, NE = no effect at highest concentration of drug tested, read-out: prolif: IC50 for inhibition of proliferation, MDA-231. In kind it is cell-based.
Test [6] has as its system MDA-361 cells. Briefly: Inhibition of proliferation of MDA-361 cells. The test is classed as cell-based. The note with it: MDA361, NE = no effect at highest concentration of drug tested, read-out: prolif: IC50 for inhibition of proliferation, MDA-361. The method, then: as §2, §3
The subject of test [7] is MDA-435 cells. Briefly: Inhibition of calcium entry into MDA-435 cells. In kind it is cell-based. The note with it: MDA435, NE = no effect at highest concentration of drug tested, read-out: Ca2+: IC50 for inhibition of calcium entry, MDA-435. The method, then:
as §1

The test system of test [8] is Jurkat cells. As to the kind of experiment: Inhibition of calcium entry into Jurkat cells (indo-1 fluorescence). The test is classed as cell-based, human. Conditions: Homo sapiens; Jurkat; NE = no effect at highest concentration of drug tested; read-out: Ca2+: IC50 for inhibition of calcium entry, Jurkat. The method, then:
as §1, with “8100C” left out, “([…].,” for “(Densmore, J. J., Haverstick, D. M.,”, “271:[…].,” for “271:C1494-C1503; Haverstick, D. M., Densmore, J. J.,”

Test [9] relates to MDA-435 cells. Briefly: Inhibition of proliferation of MDA-435 cells. The test is classed as cell-based. The note with it: MDA435, NE = no effect at highest concentration of drug tested, read-out: prolif: IC50 for inhibition of proliferation, MDA-435.
The test system of test [10] is LNCaP cells. Briefly: Inhibition of calcium entry into LNCaP cells. The test is classed as cell-based. The note with it: Homo sapiens, NE = no effect at highest concentration of drug tested, read-out: Ca2+: IC50 for inhibition of calcium entry, LNCaP. The method, then: as §1
For test [11], the system named is LNCaP cells. Briefly: Inhibition of proliferation of LNCaP cells. Conditions: Homo sapiens, NE = no effect at highest concentration of drug tested, read-out: prolif: IC50 for inhibition of proliferation, LNCaP. The test is classed as cell-based. The method, then:
as §2, §3

Test [12] deals with PC3 cells. As to the kind of experiment: Inhibition of calcium entry into PC3 cells. Conditions: Homo sapiens, PC-3, NE = no effect at highest concentration of drug tested, read-out: Ca2+: IC50 for inhibition of calcium entry, PC3. In kind it is cell-based. The method, then:
as §1

The subject of test [13] is HEK293 cells stably transfected the α1H gene. As to the kind of experiment: Proliferation of HEK293 cells stably transfected with α1H. The test is classed as cell-based. The note with it: FIG. 5.

Take `COc1ccc(CNCCOC(c2ccccc2)c2ccc(Cl)cc2)cc1` (stereo not shown) [Compound 3.9]: the pIC50 in the test on MDA-231 cells [1] is 5.00; with PC3 cells [2] it was 5.40; with Jurkat cells [3] it was 5.42; in the test with MDA-361 cells [4], 5.30; in the test on MDA-231 cells [5], 4.93; in the test on MDA-361 cells [6] it was 5.40. The pIC50 is 5.00 in the test on MDA-435 cells [7]; 5.52 in the test on Jurkat cells [8]; 4.92 in the test with MDA-435 cells [9]; 5.52 with LNCaP cells [10]; 5.80 in the test on LNCaP cells [11].
Take `COc1ccc(CNCCCCOC(c2ccccc2)c2ccc(Cl)cc2)cc1` (stereo not shown) [Compound 3.2]: the pIC50 with MDA-231 cells [1] was 5.10; in the test on PC3 cells [2], 5.05; in the test on Jurkat cells [3], 5.52; in the test on MDA-361 cells [4], 5.22; with MDA-231 cells [5] it was 5.00; with MDA-361 cells [6] it was 5.40. For the same molecule, the pIC50 is 5.00 in the test with MDA-435 cells [7]; 5.52 with Jurkat cells [8]; 4.98 in the test on MDA-435 cells [9]; 5.00 in the test with PC3 cells [12]; 5.30 with LNCaP cells [10]; 5.70 in the test with LNCaP cells [11].
Regarding `COc1ccc(C(=O)CCCCOC(c2ccccc2)c2ccc(Cl)cc2)cc1` (stereo not shown) [Compound 3.6], the pIC50 with MDA-231 cells [1], with PC3 cells [2], with Jurkat cells [3], in the test with MDA-361 cells [4], in the test on MDA-231 cells [5] and with MDA-361 cells [6] was below 4.00 throughout. Also, the pIC50 with MDA-435 cells [7] is below 4.00; with Jurkat cells [8], below 4.00; with MDA-435 cells [9] it was below 4.00; with PC3 cells [12] it was below 4.00; in the test on LNCaP cells [10], below 4.00; in the test with LNCaP cells [11] it was around 4.00.
Consider `COc1ccc(CCCNCCOC(c2ccccc2)c2ccc(Cl)cc2)cc1` (stereo not shown) [Compound 3.4], for which the pIC50 with MDA-231 cells [1] is around 4.70; with PC3 cells [2] it was 5.00; in the test with Jurkat cells [3] it was 5.43; in the test with MDA-361 cells [4], 5.00; with MDA-231 cells [5] it was 5.40; in the test on MDA-361 cells [6] it was 5.40. Moreover, the pIC50 in the test with MDA-435 cells [7] is 4.82; in the test with Jurkat cells [8], 5.52; in the test with MDA-435 cells [9] it was 5.00; in the test on PC3 cells [12] it was around 4.82; in the test with LNCaP cells [10] it was 4.82; with LNCaP cells [11], 5.26.
Turning to `COc1ccc(CNCCCCCC(c2ccccc2)c2ccc(Cl)cc2)cc1` (stereo not shown) [Compound 3.1], the pIC50 in the test with MDA-231 cells [1] was 5.00; in the test on PC3 cells [2], 4.96; in the test on Jurkat cells [3] it was 5.40; with MDA-361 cells [4], 5.00; in the test on MDA-231 cells [5] it was 5.10; in the test on MDA-361 cells [6], 5.10. Moreover, the pIC50 with MDA-435 cells [7] was 4.60; in the test with Jurkat cells [8], 5.00; in the test on MDA-435 cells [9] it was 4.92; in the test on LNCaP cells [10], 5.00; with LNCaP cells [11] it was 5.46.
As for `COc1ccc(CCNCCOC(c2ccccc2)c2ccc(Cl)cc2)cc1` (stereo not shown) [Compound 3.8], the pIC50 in the test on MDA-231 cells [1] was 5.00; with PC3 cells [2], 4.94; with Jurkat cells [3], 5.12; in the test with MDA-361 cells [4], 4.70; with MDA-231 cells [5] it was 4.97; with MDA-361 cells [6] it was 5.12. Further, the pIC50 was 5.00 in the test with MDA-435 cells [7]; 5.00 with Jurkat cells [8]; 4.80 in the test on MDA-435 cells [9]; 5.00 in the test with PC3 cells [12]; 5.00 in the test with LNCaP cells [10]; 5.46 with LNCaP cells [11].
Consider `COCC(=O)O[C@]1(CCN(C)CCCc2nc3ccccc3[nH]2)CCc2cc(F)ccc2[C@@H]1C(C)C` [mibefradil, reference compound], for which, in test [13], the “proliferation of stably transfected HEK293 cells” value is recorded as “inhibits proliferation”.
As to `COc1ccc(NCCCCCCC(c2ccccc2)c2ccc(Cl)cc2)cc1` (stereo not shown) [Compound 3.17], the pIC50 was 4.52 in the test on MDA-231 cells [1]; below 4.00 with PC3 cells [2]; below 4.00 in the test on Jurkat cells [3]; below 4.00 in the test on MDA-231 cells [5]; 4.52 with MDA-435 cells [7]; 4.52 in the test on Jurkat cells [8]. Moreover, the pIC50 in the test on MDA-435 cells [9] was below 4.00; in the test with LNCaP cells [10], 4.52; in the test with LNCaP cells [11] it was below 4.00.
As for `COc1ccc(CNCc2ccccc2COC(c2ccccc2)c2ccc(Cl)cc2)cc1` (stereo not shown) [Compound 3.11], the pIC50 in the test with MDA-231 cells [1] is 4.70; in the test on PC3 cells [2], 4.85; with Jurkat cells [3], 5.27; with MDA-361 cells [4], 5.00; in the test with MDA-231 cells [5], 4.94; in the test with MDA-361 cells [6], 5.07. For the same molecule, the results for the pIC50 in the test on Jurkat cells [8], in the test with MDA-435 cells [9] and in the test with LNCaP cells [11] were 5.48, 4.66 and 5.48, respectively.
For `COc1ccc(CCNCCCCC(c2ccccc2)c2ccc(Cl)cc2)cc1` (stereo not shown) [Compound 3.19], the pIC50 in the test on MDA-231 cells [1] is 5.00; in the test on PC3 cells [2], 5.00; with Jurkat cells [3] it was 5.40; in the test on MDA-231 cells [5] it was 5.22; in the test with MDA-435 cells [7], 5.00; with Jurkat cells [8] it was 5.00. Besides, the pIC50 in the test on MDA-435 cells [9] is 4.96; with LNCaP cells [10] it was 5.00; with LNCaP cells [11] it was 5.52.
Take `COc1ccc(CCCCNCCC(c2ccccc2)c2ccc(Cl)cc2)cc1` (stereo not shown) [Compound 3.21]: the pIC50 with MDA-231 cells [1] was 4.52; with PC3 cells [2], 4.96; with Jurkat cells [3] it was 4.52; with MDA-231 cells [5], 4.82; in the test with Jurkat cells [8] it was 4.52; in the test on MDA-435 cells [9] it was 5.05. In addition, the pIC50 was 4.52 in the test on PC3 cells [12] and 5.15 with LNCaP cells [11].
As to `COc1ccc(C(O)CCCCOC(c2ccccc2)c2ccc(Cl)cc2)cc1` (stereo not shown) [Compound 3.5], the pIC50 is 5.00 in the test with MDA-231 cells [1]; 4.48 in the test on PC3 cells [2]; 4.30 with Jurkat cells [3]; 4.60 with MDA-361 cells [4]; 4.30 with MDA-231 cells [5]; 4.35 with MDA-361 cells [6]. The pIC50 in the test on MDA-435 cells [7] is 5.00; in the test on Jurkat cells [8], 5.15; with MDA-435 cells [9], 4.19; in the test on PC3 cells [12], 4.52; in the test with LNCaP cells [10] it was 5.00; with LNCaP cells [11] it was 4.60.
